Key:
Format in all cases: in vivo
Puccinia triticina = assay: Wheat brown rust (PUCCRT) disease control on wheat seedlings; parameters: key to PUCCRT 3DC, HV activity at 100 ppm (% control rating) / PUCCRT disease control, 3DC / PUCCRT 1DP disease control rating, HV activity / PUCCRT 3DC disease control rating, HV activity / PUCCRT 3DC, LV activity at 125.1 g/H (% Control rating) / PUCCRT 1DP, LV activity at 125.1 g/H (% Control rating) / PUCCRT 3DC disease control rating, LV activity at 125.1 g/H / PUCCRT 1DP disease control rating, LV activity at 125.1 g/H / PUCCRT 3DC disease control rating, HV activity at 100 ppm / PUCCRT 1DP disease control rating, HV activity at 100 ppm / HV activity at 100 ppm PUCCRT 3DC (disease control rating) / LV activity at 125.1 g/H PUCCRT 1DP (disease control rating) / LV activity at 125.1 g/H PUCCRT 3DC (disease control rating): A: > 80; B: ≤ 80; C: Not Tested; D: No Activity Observed in the Reported Assay; conditions: for PUCCRT 1DP, LV activity at 125.1 g/H (% Control rating) / PUCCRT 3DC, LV activity at 125.1 g/H (% Control rating) / PUCCRT 1DP disease control rating, LV activity at 125.1 g/H / PUCCRT 3DC disease control rating, LV activity at 125.1 g/H: low volume application; for PUCCRT 1DP disease control rating, LV activity at 125.1 g/H: 1 day protectant; for PUCCRT 3DC disease control rating, LV activity at 125.1 g/H: 3 day curative
Alternaria solani = assay: Tomato early blight (ALTESO) disease control; parameters: key: A: > 80; B: ≤ 80; C: Not Tested; D: No Activity Observed in the Reported Assay; conditions: 100 ppm, 1 Day Protectant
Protocol: All fungicides were evaluated using the aforementioned method for their activity vs. all target diseases, unless stated otherwise. Wheat leaf blotch and brown rust activity were also evaluated using track spray applications, in which case the fungicides were formulated as EC formulations, containing 0.1% Trycol 5941 in the spray solutions. Wheat plants (variety Yuma) were grown from seed in a greenhouse in 50% mineral soil/50% soil-less Metro mix until the first leaf was fully emerged, with 7-10 seedlings per pot. These plants were inoculated with an aqueous spore suspension of Zymoseptoria tritici either prior to or after fungicide treatments. After inoculation the plants were kept in 100% relative humidity (one day in a dark dew chamber followed by two to three days in a lighted dew chamber at 20° C.) to permit spores to germinate and infect the leaf. The plants were then transferred to a greenhouse set at 20° C. for disease to develop. When disease symptoms were fully expressed on the 1st leaves of untreated plants, infection levels were assessed on a scale of 0 to 100 percent disease severity. Percent disease control was calculated using the ratio of disease severity on treated plants relative to untreated plants. Example J: Evaluation of Fungicidal Activity: Tomato Early Blight (Alternaria solani; Bayer Code […]) Tomato plants (variety Outdoor Girl) were propagated in soil-less Metro mix, with each pot having one plant, and used when 12 to 14 days old. Test plants were inoculated with an aqueous spore suspension of Alternaria solani 24 hr after fungicide treatments. After inoculation the plants were kept in a dew room at 22° C. with 100% relative humidity for 48 h to permit spores to germinate and infect the leaf. The plants were then transferred to a growth room at 22° C. for disease to develop. Fungicide formulation, application and disease assessment on the sprayed leaves followed the procedures as described in the Example A.

Zymoseptoria tritici = assay: Leaf blotch of wheat (SEPTTR) disease control on wheat seedlings; conditions: for SEPTTR 1DP, LV activity at 125.1 g/H (% Control rating) / SEPTTR 3DC, LV activity at 125.1 g/H (% Control rating) / SEPTTR 1DP disease control rating, LV activity at 125.1 g/H / SEPTTR 3DC disease control rating, LV activity at 125.1 g/H: low volume application; for SEPTTR 1DP disease control rating, LV activity at 125.1 g/H: 1 day protectant; for SEPTTR 3DC disease control rating, LV activity at 125.1 g/H: 3 day curative

SMILES | ALTESO disease control, 1DP (Alternaria solani) | PUCCRT 1DP, LV activity at 125.1 g/H (% Control rating) (Puccinia triticina; 1 Day Protectant) | PUCCRT 3DC, LV activity at 125.1 g/H (% Control rating) (Puccinia triticina; 3 Day Curative) | SEPTTR 1DP, LV activity at 125.1 g/H (% Control rating) (Zymoseptoria tritici; 1 Day Protectant) | SEPTTR 3DC, LV activity at 125.1 g/H (% Control rating) (Zymoseptoria tritici; 3 Day Curative) | further results
CCCOC(CC)C(Oc1ccccc1)C(C)OC(=O)C(C)NC(=O)c1nccc(OC)c1OCOC(C)=O (centres unmarked) [Cmpd 446] | D |  |  |  |  | PUCCRT 1DP disease control rating, HV activity (Puccinia triticina; HV application at 100 ppm, 1 Day Protectant, wheat brown rust): A (> 80); PUCCRT 3DC disease control rating, HV activity (Puccinia triticina; HV application at 100 ppm, 3 Day Curative, wheat brown rust): A (> 80); PUCCRT 1DP disease control rating, LV activity (Puccinia triticina; Low volume application at 125.1 g/H, 1 Day Protectant, wheat brown rust): A (> 80); PUCCRT 3DC disease control rating, LV activity (Puccinia triticina; Low volume application at 125.1 g/H, 3 Day Curative, wheat brown rust): A (> 80); SEPTTR 1DP disease control rating, HV activity (Zymoseptoria tritici; HV application at 100 ppm, 1 Day Protectant, wheat leaf blotch): A (> 80); SEPTTR 3DC disease control rating, HV activity (Zymoseptoria tritici; HV application at 100 ppm, 3 Day Curative, wheat leaf blotch): A (> 80); SEPTTR 1DP disease control rating, LV activity (Zymoseptoria tritici; Low volume application at 125.1 g/H, 1 Day Protectant, wheat leaf blotch): A (> 80); SEPTTR 3DC disease control rating, LV activity (Zymoseptoria tritici; Low volume application at 125.1 g/H, 3 Day Curative, wheat leaf blotch): A (> 80)
CCC(CC)[C@@H](Oc1ccccc1)[C@H](C)OC(=O)[C@H](C)NC(=O)c1nccc(OC)c1OC(C)=O [Cmpd 479] | B (≤ 80) | A (> 80) | A (> 80) | A (> 80) | A (> 80) | 
COc1ccnc(C(=O)N[C@@H](C)C(=O)O[C@@H](C)[C@H](Oc2cc(F)cc(Cl)c2)C(C)C)c1OCOC(C)=O [Cmpd 617] | D | A (> 80) | A (> 80) | A (> 80) | A (> 80) | 
COc1ccnc(C(=O)N[C@@H](C)C(=O)O[C@@H](C)[C@H](Oc2ccccc2)c2ccccc2)c1OCOC(C)=O [Cmpd 500] | B (≤ 80) | A (> 80) | A (> 80) | A (> 80) | A (> 80) | 
CCC(C)C(Oc1ccccc1)C(C)OC(=O)C(C)NC(=O)c1nccc(OC)c1OC(C)=O (centres unmarked) [Cmpd 691] | D |  |  |  |  | PUCCRT 1DP disease control rating, LV activity at 125.1 g/H (Puccinia triticina): A (> 80); PUCCRT 3DC disease control rating, LV activity at 125.1 g/H (Puccinia triticina): A (> 80); SEPTTR 1DP disease control rating, LV activity at 125.1 g/H (Zymoseptoria tritici): A (> 80); SEPTTR 3DC disease control rating, LV activity at 125.1 g/H (Zymoseptoria tritici): A (> 80)
COc1ccnc(C(=O)N[C@@H](C)C(=O)O[C@@H](C)[C@H](Oc2cccc(F)c2)c2ccccc2)c1OCOC(C)=O [Cmpd 574] | B (≤ 80) | A (> 80) | A (> 80) | A (> 80) | A (> 80) | 
COc1ccnc(C(=O)N[C@@H](C)C(=O)O[C@@H](C)[C@H](Oc2ccccc2)C(C)C)c1OC(C)=O [Cmpd 478] | B (≤ 80) | A (> 80) | A (> 80) | A (> 80) | A (> 80) | 
COc1ccnc(C(=O)N[C@@H](C)C(=O)O[C@@H](C)[C@H](Oc2cc(F)cc(Cl)c2)c2ccccc2)c1OC(C)=O [Cmpd 642] | D | A (> 80) | B (≤ 80) | A (> 80) | A (> 80) | 
COc1ccnc(C(=O)N[C@@H](C)C(=O)O[C@@H](C)[C@@H](Oc2ccccc2)C(C)C)c1OCOC(C)=O [Cmpd 552] | B (≤ 80) | A (> 80) | A (> 80) | A (> 80) | A (> 80) | 
COc1ccnc(C(=O)N[C@H](C)C(=O)O[C@H](C)[C@@H](Oc2ccccc2)C(C)C)c1OCOC(C)=O [Cmpd 548] | B (≤ 80) | D | D | B (≤ 80) | B (≤ 80) | 
COc1ccnc(C(=O)N[C@H](C)C(=O)O[C@H](C)[C@H](Oc2ccccc2)C(C)C)c1OCOC(C)=O [Cmpd 560] | B (≤ 80) | D | D | B (≤ 80) | B (≤ 80) | 
COc1ccnc(C(=O)N[C@@H](C)C(=O)O[C@H](C)[C@@H](Oc2ccccc2)c2ccccc2)c1OCOC(C)=O [Cmpd 547] | B (≤ 80) | A (> 80) | A (> 80) | A (> 80) | A (> 80) | 
COc1ccnc(C(=O)N[C@H](C)C(=O)O[C@@H](C)[C@H](Oc2ccccc2)C(C)C)c1OCOC(C)=O [Cmpd 558] | B (≤ 80) | D | B (≤ 80) | B (≤ 80) | B (≤ 80) | 
C=CC(C)C(Oc1ccccc1)C(C)OC(=O)C(C)NC(=O)c1nccc(OC)c1OCOC(C)=O (centres unmarked) [Cmpd 694] | B (≤ 80) |  |  |  |  | PUCCRT 1DP disease control rating, LV activity at 125.1 g/H (Puccinia triticina): A (> 80); PUCCRT 3DC disease control rating, LV activity at 125.1 g/H (Puccinia triticina): A (> 80); SEPTTR 1DP disease control rating, LV activity at 125.1 g/H (Zymoseptoria tritici): B (≤ 80); SEPTTR 3DC disease control rating, LV activity at 125.1 g/H (Zymoseptoria tritici): A (> 80)
COc1ccnc(C(=O)N[C@@H](C)C(=O)O[C@@H](C)[C@H](Oc2cccc(Cl)c2)C(C)C)c1OC(C)=O [Cmpd 566] | B (≤ 80) | A (> 80) | A (> 80) | B (≤ 80) | A (> 80) | 
COc1ccnc(C(=O)N[C@@H](C)C(=O)O[C@@H](C)[C@H](Oc2ccccc2)C2CCCC2)c1OCOC(C)=O [Cmpd 556] | B (≤ 80) | A (> 80) | A (> 80) | A (> 80) | A (> 80) | 
COc1ccnc(C(=O)N[C@H](C)C(=O)O[C@@H](C)[C@@H](Oc2ccccc2)C(C)C)c1OCOC(C)=O [Cmpd 559] | B (≤ 80) | D | D | B (≤ 80) | A (> 80) | 

Source: patent publication US20180000085A1, “USE OF PICOLINAMIDE COMPOUNDS WITH FUNGICIDAL ACTIVITY” (DOW AGROSCIENCES LLC, priority 2014, published 2018)
